Assay results taken from patent US11242351B2, “Tricyclic inhibitors of the BCL6 BTB domain protein-protein interaction and uses thereof” (priority 2017, dated 2022).
Where two headings read alike, the source gives them in different places.

Key:
[1] = target: BCL6 BTB domain (biotin-thrombin-BCL6 amino acids 1-129) (Homo sapiens (Human), UniProt P41182); assay: Surface Plasmon Resonance (SPR) assay; assay type: binding; conditions: Biacore T200, single cycle kinetic analysis
Description: Surface Plasmon Resonance (SPR) Assay
SPR studies were performed using a Biacore™ T200 instrument (GE Health Sciences Inc.). […] The Biacore flow rate was set at 100 μl/min. […] Curve fitting and KD calculations were performed with the Biacore T200 Evaluation software (GE Health Sciences Inc).

Karpas422 cells = assay: Tumor cell growth inhibition assay; assay type: cell-based; conditions: Homo sapiens, KARPAS-422, 144 h, read-out: GI Karpas EC50
Method in brief: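 Karpas422 cells were dosed over a 10-point concentration range (top 5 μM) and grown 6 days at 37 °C, 5% CO2, in Alpha-MEM with 10% FBS. Viability was read as ATPlite luminescence.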

[2] = system: BCL6 reporter construct in SuDHL4-3×BCL6-TK-Luc cells; assay: Cell-based luciferase assay (BCL6 reporter); conditions: 48 h, read-out: Luc IC50
Method in brief: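 SuDHL4 cells stably carrying a 3×BCL6-site TK-promoter firefly luciferase reporter, 15,000 cells/well, dosed over 10 concentrations (top 10 μM) and cultured two days at 37° C, 5% CO2. Luciferase luminescence read after room-temperature equilibration with neolite reagent.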

[3] = Karpas422 cells, six days, ATPlite
[4] = SuDHL4-3×BCL6-TK-Luc cells, two days

Row | Structure (SMILES) | Kd [1] | EC50 (Karpas422 cells; [3]) | IC50 [2, 4] | EC50 (Karpas422 cells) | IC50 [2]
1 | C[C@H]1CN(C)CCN1c1cc(NC(=O)Cn2cc(-c3cc(F)c(O)c(C(N)=O)c3)c3c(=O)n4c(nc32)CC(C)(C)C4)c(Cl)c(F)n1 [I-79, (S)-5-(1-(2-((3-chloro-6-(2,4-dimethyl-piperazin-1-yl)-2-fluoropyridin-4-yl)amino)-2-oxoethyl)-7,7-dimethyl-4-oxo-4,6,7,8-tetrahydro-1H-dipyrrolo[1,2-a:2′,3′-d]pyrimidin-3-yl)-3-fluoro-2-hydroxy-benzamide] | 2.79 nM | 39.8 nM | 35.2 nM | – | –
2 | CN(C)c1cc(NC(=O)Cn2cc(-c3cc(F)c(O)c(C(N)=O)c3)c3c(=O)n4c(nc32)CCC4)c(Cl)c(F)n1 [I-80, 5-(1-(2-((3-chloro-6-(dimethylamino)-2-fluoropyridin-4-yl)amino)-2-oxoethyl)-4-oxo-4,6,7,8-tetrahydro-1H-dipyrrolo[1,2-a:2′,3′-d]pyrimidin-3-yl)-3-fluoro-2-hydroxy-benzamide] | 3.83 nM | 70.1 nM | 87.2 nM | – | –
3 | CCN1CCN(c2cc(NC(=O)Cn3cc(-c4cc(F)c(O)c(C(N)=O)c4)c4c(=O)n5c(nc43)CCC5)c(Cl)c(F)n2)[C@@H](C)C1 [I-81, (S)-5-(1-(2-((3-chloro-6-(4-ethyl-2-methyl-piperazin-1-yl)-2-fluoropyridin-4-yl)amino)-2-oxoethyl)-4-oxo-4,6,7,8-tetrahydro-1H-dipyrrolo[1,2-a:2′,3′-d]pyrimidin-3-yl)-3-fluoro-2-hydroxy-benzamide] | 1.55 nM | 31.3 nM | 28.3 nM | – | –
4 | CCN1CCN(c2cc(NC(=O)Cn3cc(-c4cc(Cl)c(O)c(C(N)=O)c4)c4c(=O)n5c(nc43)CCC5)c(Cl)c(F)n2)[C@@H](C)C1 [I-82, (S)-3-chloro-5-(1-(2-((3-chloro-6-(4-ethyl-2-methylpiperazin-1-yl)-2-fluoropyridin-4-yl)amino)-2-oxoethyl)-4-oxo-4,6,7,8-tetra-hydro-1H-dipyrrolo [1,2-a:2′,3′-d]pyrimi-din-3-yl)-2-hydroxy-benzamide] | 4.13 nM | 27.8 nM | 63.1 nM | – | –
5 | C[C@H]1CN(C)C[C@H](C)N1c1cc(NC(=O)Cn2cc(-c3cc(F)c(O)c(C(N)=O)c3)c3c(=O)n4c(nc32)CCC4)c(Cl)c(F)n1 [I-83, 5-(1-(2-((3-chloro-2-fluoro-6-((2S,6S)-2,4,6-trimethylpiperazin-1-yl)pyridin-4-yl)amino)-2-oxoethyl)-4-oxo-4,6,7,8-tetrahydro-1H-dipyrrolo[1,2-a:2′,3′-d]pyrimidin-3-yl)-3-fluoro-2-hydroxy-benzamide] | 11.2 nM | 109 nM | 465 nM | – | –
6 | C[C@H]1COCCN1c1cc(NC(=O)Cn2cc(-c3cc(C(N)=O)c(O)c4c3OCO4)c3c(=O)n4c(nc32)CCC4)c(Cl)cn1 [I-85, (S)-7-(1-(2-((5-chloro-2-(3-methylmorpholino)pyridin-4-yl)amino)-2-oxoethyl)-4-oxo-4,6,7,8-tetrahydro-1H-dipyrrolo[1,2-a:2′,3′-d]pyrimidin-3-yl)-4-hydroxybenzo[d][1,3] dioxole-5-carboxamide] | 1.61 nM | 29.6 nM | 15.4 nM | – | –
7 | CCN1CCN(c2cc(NC(=O)Cn3cc(-c4cc(C(N)=O)c(O)c5c4OCO5)c4c(=O)n5c(nc43)CCC5)c(Cl)c(F)n2)[C@@H](C)C1 [I-86, (S)-7-(1-(2-((3-chloro-6-(4-ethyl-2-methyl-piperazin-1-yl)-2-fluoropyridin-4-yl)amino)-2-oxoethyl)-4-oxo-4,6,7,8-tetrahydro-1H-dipyrrolo[1,2-a:2′,3′-d]pyrimidin-3-yl)-4-hydroxybenzo[d][1,3] dioxole-5-carboxamide] | 0.81 nM | – | – | 6.88 nM | 7.85 nM
8 | CC1Cc2nc3c(c(-c4cc(C(N)=O)c(O)c5c4OCO5)cn3CC(=O)Nc3cc(N4CCN(C)C[C@@H]4C)nc(F)c3Cl)c(=O)n2C1 (stereo partly drawn) [I-87, 7-(1-(2-((3-chloro-6-((S)-2,4-dimethyl-piperazin-1-yl)-2-fluoropyridin-4-yl)amino)-2-oxoethyl)-7-methyl-4-oxo-4,6,7,8-tetrahydro-1H-dipyrrolo[1,2-a:2′,3′-d]pyrimidin-3-yl)-4-hydroxybenzo[d][1,3] dioxole-5-carboxamide] | 0.77 nM | 9.04 nM | 10.6 nM | – | –
9 | CC1Cc2nc3c(c(-c4cc(C(N)=O)c(O)c5c4OCO5)cn3CC(=O)Nc3cc(N4CCOC[C@@H]4C)ncc3Cl)c(=O)n2C1 (stereo partly drawn) [I-88, 7-(1-(2-((5-chloro-2-((S)-3-methylmorpho-lino)pyridin-4-yl)amino)-2-oxoethyl)-7-methyl-4-oxo-4,6,7,8-tetrahydro-1H-dipyrrolo[1,2-a:2′,3′-d]pyrimidin-3-yl)-4-hydroxybenzo[d][1,3] dioxole-5-carboxamide] | 2.14 nM | 17.6 nM | 39.4 nM | – | –
10 | CCN1CCN(c2cc(NC(=O)Cn3cc(-c4cc(C(N)=O)c(O)c5c4OCO5)c4c(=O)n5c(nc43)CC(C)C5)c(Cl)c(F)n2)[C@@H](C)C1 (stereo partly drawn) [I-89, 7-(1-(2-((3-chloro-6-((S)-4-ethyl-2-methyl-piperazin-1-yl)-2-fluoropyridin-4-yl)amino)-2-oxoethyl)-7-methyl-4-oxo-4,6,7,8-tetrahydro-1H-dipyrrolo[1,2-a:2′,3′-d]pyrimidin-3-yl)-4-hydroxybenzo[d][1,3] dioxole-5-carboxamide] | 1.36 nM | 11.1 nM | 12.9 nM | – | –
11 | C[C@H]1CNCCN1c1cc(NC(=O)Cn2cc(-c3cc(C(N)=O)c(O)c4c3OCO4)c3c(=O)n4c(nc32)CCC4)c(Cl)c(F)n1 [I-90, (S)-7-(1-(2-((3-chloro-2-fluoro-6-(2-methyl-piperazin-1-yl)pyridin-4-yl)amino)-2-oxo-ethyl)-4-oxo-4,6,7,8-tetrahydro-1H-dipyrrolo [1,2-a:2′,3′-d]pyrimidin-3-yl)-4-hydroxybenzo [d][1,3]dioxole-5-carboxamide] | 0.7 nM | 22 nM | 23.5 nM | – | –
12 | COc1c(-c2cn(CC(=O)Nc3cc(N4CCN(C)C[C@@H]4C)nc(F)c3Cl)c3nc4n(c(=O)c23)CCC4)cc(C(N)=O)c(O)c1F [I-91, (S)-5-(1-(2-((3-chloro-6-(2,4-dimethylpipera-zin-1-yl)-2-fluoro-pyridin-4-yl)amino)-2-oxoethyl)-4-oxo-4,6,7,8-tetrahydro-1H-dipyrrolo [1,2-a:2′,3′-d]pyrimidin-3-yl)-3-fluoro-2-hydroxy-4-methoxy-benzamide] | 94.7 nM | – | – | 1790 nM | 1030 nM
13 | C[C@H]1CN(C)CCN1c1cc(NC(=O)Cn2cc(-c3cc(C(N)=O)c(O)c4c3OCO4)c3c(=O)n4c(nc32)CC(C)(C)C4)c(Cl)c(F)n1 [I-92, (S)-7-(1-(2-((3-chloro-6-(2,4-dimethylpipera-zin-1-yl)-2-fluoro-pyridin-4-yl)amino)-2-oxoethyl)-7,7-dimethyl-4-oxo-4,6,7,8-tetra-hydro-1H-dipyrrolo [1,2-a:2′,3′-d]pyrimi-din-3-yl)-4-hydroxy-benzo[d][1,3]dioxole-5-carboxamide] | 0.87 nM | 9.22 nM | 12.4 nM | – | –
14 | C[C@H]1CNCCN1c1cc(NC(=O)Cn2cc(-c3cc(F)c(O)c(C(N)=O)c3)c3c(=O)n4c(nc32)CCC4)c(Cl)c(F)n1 [I-93, (S)-5-(1-(2-((3-chloro-2-fluoro-6-(2-methyl-piperazin-1-yl)pyridin-4-yl)amino)-2-oxoethyl)-4-oxo-4,6,7,8-tetrahydro-1H-dipyrrolo[1,2-a:2′,3′-d]pyrimidin-3-yl)-3-fluoro-2-hydroxy-benzamide] | 1.79 nM | 83.9 nM | 140 nM | – | –
15 | C[C@H]1CN(C)CCN1c1cc(NC(=O)Cn2cc(-c3cc(C(N)=O)c(O)c4c3OCO4)c3c(=O)n4c(nc32)COCC4)c(Cl)c(F)n1 [I-94, (S)-7-(1-(2-((3-chloro-6-(2,4-dimethylpipera-zin-1-yl)-2-fluoro-pyridin-4-yl)amino)-2-oxoethyl)-4-oxo-4,6,7,9-tetrahydro-1H-pyrrolo[2′,3′:4,5]pyri-mido[2,1-c][1,4]oxazin-3-yl)-4-hydroxybenzo [d][1,3]dioxole-5-carboxamide] | 1.33 nM | 17.8 nM | 28.3 nM | – | –
16 | COc1c(-c2cn(CC(=O)Nc3cc(N4CCN(C)C[C@@H]4C)nc(F)c3Cl)c3nc4n(c(=O)c23)CCC4)cc(C(N)=O)c(O)c1Cl [I-95, (S)-3-chloro-5-(1-(2-((3-chloro-6-(2,4-dimethylpiperazin-1-yl)-2-fluoropyridin-4-yl)amino)-2-oxo-ethyl)-4-oxo-4,6,7,8-tetrahydro-1H-dipyrrolo[1,2-a:2′,3′-d]pyrimidin-3-yl)-2-hydroxy-4-methoxy-benzamide] | 450 nM | – | – | 879 nM | 993 nM
17 | C[C@H]1CNCCN1c1cc(NC(=O)Cn2cc(-c3cc(C(N)=O)c(O)c4c3OCO4)c3c(=O)n4c(nc32)CC(C)(C)C4)c(Cl)c(F)n1 [I-96, (S)-7-(1-(2-((3-chloro-2-fluoro-6-(2-methyl-piperazin-1-yl)pyridin-4-yl)amino)-2-oxo-ethyl)-7,7-dimethyl-4-oxo-4,6,7,8-tetrahydro-1H-dipyrrolo[1,2-a:2′,3′-d]pyrimidin-3-yl)-4-hydroxybenzo[d][1,3] dioxole-5-carboxamide] | 0.96 nM | – | – | 14.2 nM | 17.5 nM
